Values after ≈ are worked out from the molar mass of the structure shown.
Legend:
[1] = system: BT-20 human breast carcinoma cells; settings: cited from earlier work
[2] = system: TA98 and TA100 strains of salmonella typhimurium; settings: cited from earlier work
[3] = system: Caco-2 (colon adenocarcinoma) cells; experiment: In-vitro anticancer MTT assay, Caco-2; format: cell-based, human; settings: for Inhibitory Concentration (IC90) Caco-2: MTT assay, 90% inhibition of cell growth vs untreated control, 6 h exposure, then 48 h; for IC90: Homo sapiens, Caco-2, read-out: Inhibitory Concentration (IC90) Caco-2
Procedure: (§1) The following six human cancer cell lines were procured from the Cell Repository of the National Center for Cell Sciences (NCCS) at Pune. Their corresponding ATCC No. and the organ from which they were isolated are also mentioned in the table described below:
(§2) Cytotoxicity testing in vitro was done by the method of (Woerdenbag et al., 1993; J. Nat. Prod. 56 (6): 849-856). 2×10^3 cells/well were incubated in the 5% CO2 incubator for 24 h to enable them to adhere properly to the 96 well polystyrene microplate (Grenier, Germany). Test compounds dissolved in 100% DMSO in at least five doses were added and left for 6 h after which the compound plus media was replaced with fresh media and the cells were incubated for another 48 h in the CO2 incubator at 37° C.
(§3) Then, 10 μl MTT [3-(4,5-dimethylthiazol-2-yl)-2,5-diphenyltetrazolium bromide; Sigma M 2128] was added, and plates were incubated at 37° C. for 4 h. 100 μl dimethyl sulfoxide (DMSO, Merck, Germany) were added to all wells and mixed thoroughly to dissolve the dark blue crystals. After a few minutes at room temperature to ensure that all crystals were dissolved, the plates were read on a SpectraMax 190 Microplate Elisa reader (Molecular Devices Inc., USA), at 570 nm. Plates were normally read within 1 h of adding the DMSO. The experiment was done in triplicate and the inhibitory concentration (IC) values were calculated as follows: % inhibition=[1-OD (570 nm) of sample well/OD (570 nm) of control well]×100. IC90 is the concentration μg/ml required for 90% inhibition of cell growth as compared to that of untreated control. […] It was also found to be active against breast adenocarcinoma, liver and ovarian cancer cell lines at 20-60 μg/ml.
(§4) IC90: Concentration required to inhibit 90% of cell growth as compared to that of control.

[4] = system: PA-1 (ovary cancer) cells; experiment: In-vitro anticancer MTT assay, PA-1; format: cell-based, human; settings: 90% inhibition of cell growth vs untreated control, 6 h exposure, then 48 h
Procedure: as §1, §2, §3, §4

[5] = system: MCF-7 (breast cancer) cells; experiment: In-vitro anticancer MTT assay, MCF-7; format: cell-based, human; settings: 6 h exposure, then 48 h; for IC90: Homo sapiens, MCF7, 90% inhibition of cell growth vs untreated control, read-out: Inhibitory Concentration (IC90) MCF-7
Procedure: as §1, §2, §3, §4

[6] = system: Neisseria gonorrhoeae; settings: cited from earlier work
[7] = system: WRL-68 (liver cancer) cells; experiment: In-vitro anticancer MTT assay, WRL-68; format: cell-based; settings: Homo sapiens, WRL68, 90% inhibition of cell growth vs untreated control, 6 h exposure, then 48 h, read-out: Inhibitory Concentration (IC90) WRL-68
Procedure: as §1, §2
(§5) Then, 10 μl MTT [3-(4,5-dimethylthiazol-2-yl)-2,5-diphenyltetrazolium bromide; Sigma M 2128] was added, and plates were incubated at 37° C. for 4 h. […] After a few minutes at room temperature to ensure that all crystals were dissolved, the plates were read on a SpectraMax 190 Microplate Elisa reader (Molecular Devices Inc., USA), at 570 nm. Plates were normally read within 1 h of adding the DMSO. The experiment was done in triplicate and the inhibitory concentration (IC) values were calculated as follows: % inhibition=[1-OD (570 nm) of sample well/OD (570 nm) of control well]×100. […]

[8] = system: breast adenocarcinoma, liver and ovarian cancer cell lines; experiment: In-vitro anticancer MTT assay, summary over three cell lines; format: cell-based; settings: Homo sapiens, range over three cell lines, read-out: active concentration (IC90) against breast adenocarcinoma, liver and ovarian cancer cell lines
Procedure: as §1, §2, §5

Question: With `O=C(O[C@H]1[C@@H]2OC(=O)c3cc(O)c(O)c(O)c3-c3c(O)c(O)c4oc(=O)c5c(c(O)c(O)c6oc(=O)c3c4c65)-c3c(cc(O)c(O)c3O)C(=O)OC[C@H]2OC(O)[C@@H]1O)c1cc(O)c(O)c(O)c1` (stereo partly drawn) [Arjunin] as the molecule, how does the IC50 [1] read?
Answer: 6500 µg/mL (≈ 6950 µM)

Question: And the cytotoxic activity [1]?
Answer: moderate cytotoxic activity

Question: Which “antimutagenic effect against 59-dependent 2AF” value [2] does the source give for `O=c1oc2c(O)c(O)cc3c(=O)oc4c(O)c(O)cc1c4c23` [Ellagic acid] here?
Answer: quit effective

Question: And the “antimutagenic effect against NPD” value [2]?
Answer: moderate effect

Question: Which “Inhibitory Concentration (IC90) Caco-2” value [3] does the source give for arjungenin here?
Answer: 50 µg/mL

Question: What about the “Inhibitory Concentration (IC90) PA-1” value [4] of the same molecule?
Answer: 60 µg/mL

Question: And the “Inhibitory Concentration (IC90) MCF-7” value ([5]; 90% inhibition of cell growth vs untreated control)?
Answer: >50 µg/mL

Question: With `O=c1cc(-c2ccc(O)c(O)c2)oc2cc(O)cc(O)c12` [Luteolin] as the molecule, how does the “activity against pathogenic bacteria” value [6] read?
Answer: specific activity

Question: With `CC1(C)CCC2(C(=O)O)CCC3(C)C(=CCC4C5(C)CC(O)C(O)C(C)(C)C5CCC43C)C2C1O` (racemic) [Arjunic acid, 2±,3^2,19±-tri-hydroxy-olea-12-en-28-oic acid] as the molecule, how does the IC90 [7] read?
Answer: 20 µg/mL (≈ 40.9 µM)

Question: And the IC90 [3]?
Answer: 4.5 µg/mL (≈ 9.21 µM)

Question: And the IC90 ([4]; Homo sapiens, read-out: Inhibitory Concentration (IC90) PA-1)?
Answer: 60 µg/mL (≈ 123 µM)

Question: What about the IC90 [5] of the same molecule?
Answer: 50 µg/mL (≈ 102 µM)

Question: And the IC90 [8]?
Answer: 20 to 60 µg/mL (≈ 40.9 to 123 µM)

Question: Which “Inhibitory Concentration (IC90) Caco-2” value [3] does the source give for `CC1(C)CC[C@]2(C(=O)O[C@@H]3O[C@H](CO)[C@@H](O)[C@H](O)[C@H]3O)CC[C@]3(C)C(=CC[C@@H]4[C@@]5(C)C[C@@H](O)[C@H](O)[C@@](C)(CO)[C@@H]5CC[C@]43C)[C@@H]2[C@@H]1O` [Arjunglucoside-I, arjunglucoside-I] here?
Answer: >50 µg/mL

Question: And the “Inhibitory Concentration (IC90) PA-1” value [4]?
Answer: >50 µg/mL

Question: Which IC90 [7] does the source give for `CC1(C)CCC2(C(=O)OC3OC(CO)C(O)C(O)C3O)CCC3(C)C(=CCC4C5(C)CC(O)C(O)C(C)(C)C5CCC43C)C2C1O` (stereo not drawn) [Arjunetin, arjunetin] here?
Answer: 20 µg/mL (≈ 30.7 µM)

Question: And the IC90 [3]?
Answer: 10 µg/mL (≈ 15.4 µM)

Question: And the IC90 [5]?
Answer: 50 µg/mL (≈ 76.8 µM)
